# According to patent US8435990B2, “Dihydropyrimidone amides as P2X7 modulators” (Roche Palo Alto LLC, priority 2009, dated 2013):
# Target: T1, human P2X7 (Homo sapiens, UniProt Q99572)
# T1 construct: 1321N1 cells stably expressing the full length human P2X7 gene (1321N1-hP2X7)
# T1 sequence (Q99572 1-595): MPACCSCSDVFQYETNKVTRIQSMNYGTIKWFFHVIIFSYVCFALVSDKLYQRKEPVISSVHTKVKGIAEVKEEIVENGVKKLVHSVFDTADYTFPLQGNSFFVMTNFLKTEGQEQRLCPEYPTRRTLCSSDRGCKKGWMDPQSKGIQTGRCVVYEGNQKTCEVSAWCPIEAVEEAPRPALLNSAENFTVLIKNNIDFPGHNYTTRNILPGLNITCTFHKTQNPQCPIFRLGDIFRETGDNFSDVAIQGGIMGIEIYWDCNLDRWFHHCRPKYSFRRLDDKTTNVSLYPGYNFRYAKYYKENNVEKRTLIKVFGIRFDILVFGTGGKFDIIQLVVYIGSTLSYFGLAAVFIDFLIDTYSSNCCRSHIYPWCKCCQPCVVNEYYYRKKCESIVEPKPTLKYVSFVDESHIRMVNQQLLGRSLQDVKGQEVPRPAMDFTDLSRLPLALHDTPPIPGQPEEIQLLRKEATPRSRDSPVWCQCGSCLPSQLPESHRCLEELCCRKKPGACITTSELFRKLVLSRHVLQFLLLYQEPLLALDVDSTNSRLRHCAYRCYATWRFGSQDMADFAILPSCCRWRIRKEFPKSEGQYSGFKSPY
# Assay: P2X7 modulator pIC50 of Table 1 (assay not given; Intracellular Calcium Flux (FLIPR) Assay assumed)
# Format: cell-based
# Experimental: Intracellular Calcium Flux (FLIPR) Assay
# Stock solutions of compounds were prepared from powders as a 10 mM DMSO stock solution. These solutions were stored at RT during the two week period of these experiments to prevent freeze-thaw of the DMSO stocks. The DMSO stocks were added to the appropriate assay buffer at a concentration of 10 μM, and then diluted serially to the final concentrations that were tested. No observable precipitate was formed at any time during this process. The aqueous solutions of compounds as well as ATP (Sigma A7699) and BzATP (Sigma B6396) were prepared fresh for each day of experiment.
# 1321N1 cells stably expressing the full length human P2X7 gene (1321N1-hP2X7) and HEK293 cells stably expressing the full length rat P2X7 gene (HEK293-rP2X7) were obtained from the Roche Cell Culture Facility. 1321N1-hP2X7 cells were grown in Dulbecco's Modified Eagle's Medium (DMEM) high glucose supplemented with 10% FBS and 250 μg/mL G418. HEK293-rP2X7 cells were grown in DMEM/F-12 supplemented with 10% FBS, 1 mM CaCl2, 2 mM MgCl2, 2 mM L-Glutamine and 500 μg/ml G418. Cells were split such that they never became >70% confluent.
# On the day prior to the experiment, 1321N1-hP2X7 or HEK293-rP2X7 cells were released into suspension with calcium-free PBS+Versene and washed by centrifugation with calcium-free PBS to remove the Versene. Cells were resuspended in growth medium at a density of 2.5×10^5 cells/mL and seeded into black walled, clear bottom 96 well plates (50,000 cells/well) approximately 18 hr prior to intracellular calcium flux experiments.
# On the day of the experiment, plates were washed with FLIPR buffer (calcium- and magnesium-free Hank's Balanced Salt Solution (HBSS) supplemented with 10 mM Hepes, 2.5 mM probenecid and 2 mM calcium chloride) using a BIO-TEK 96 channel plate washer and incubated with […] fluo-3 dye at 37° C. for one hr. The dye was then removed by plate washing and the cells were allowed to equilibrate for 20 min at room temperature with antagonist or vehicle (FLIPR buffer). Agonist (100 μM BzATP final concentration for hP2X7; 5μM BzATP final concentration or rP2X7) was added online with the FLIPR and fluorescence measurements made at 1 sec intervals for 60 sec followed by 3 sec intervals for a further 4 min (5 min total). A final addition of 5 μM ionomycin was made and the maximal BzATP-evoked fluorescence normalized to the maximal ionomycin-evoked fluorescence.
row,Structure (SMILES),IC50 [nM]
1,"Cc1cc2cn[nH]c2cc1NC(=O)C1=CN(C)C(=O)N[C@H]1c1ccc(F)cc1 [Compound 47, (S)-4-(4-Fluoro-phenyl)-1-methyl-2-oxo-1,2,3,4-tetrahydro-pyrimidine-5-carboxylic acid (5-methyl-1H-indazol-6-yl)-amide]",18.2
2,"Cc1ccc(-n2ccc(=O)[nH]c2=O)cc1NC(=O)C1=CN(C)C(=O)N[C@H]1c1ccc(F)cc1 [Compound 48, (S)-4-(4-Fluoro-phenyl)-1-methyl-2-oxo-1,2,3,4-tetrahydro-pyrimidine-5-carboxylic acid [5-(2,4-dioxo-3,4-dihydro-2H-pyrimidin-1-yl)-2-methyl-phenyl]-amide]",26
3,"Cc1ccc(-n2ncccc2=O)cc1NC(=O)C1=CN(C)C(=O)N[C@H]1c1cccc(F)c1 [Compound 49, (S)-4-(3-Fluoro-phenyl)-1-methyl-2-oxo-1,2,3,4-tetrahydro-pyrimidine-5-carboxylic acid [2-methyl-5-(6-oxo-6H-pyridazin-1-yl)-phenyl]-amide]",105
4,"Cc1ccc(-n2cccc(C)c2=O)cc1NC(=O)C1=CN(C)C(=O)N[C@H]1c1ccc(F)cc1 [Compound 50, (S)-4-(4-Fluoro-phenyl)-1-methyl-2-oxo-1,2,3,4-tetrahydro-pyrimidine-5-carboxylic acid [2-methyl-5-(3-methyl-2-oxo-2H-pyridin-1-yl)-phenyl]-amide]",55
5,"CN1C=C(C(=O)Nc2cccc3c(=O)n(C)ccc23)[C@H](c2ccc(F)cc2)NC1=O [Compound 51, (S)-4-(4-Fluoro-phenyl)-1-methyl-2-oxo-1,2,3,4-tetrahydro-pyrimidine-5-carboxylic acid (2-methyl-1-oxo-1,2-dihydro-isoquinolin-5-yl)-amide]",63.1
6,"Cc1ccc(-c2ccnn(C)c2=O)cc1NC(=O)C1=CN(C)C(=O)NC1C1CCC(F)(F)CC1 (stereo not drawn) [Compound 52, 4-(4,4-Difluoro-cyclohexyl)-1-methyl-2-oxo-1,2,3,4-tetrahydro-pyrimidine-5-carboxylic acid [2-methyl-5-(2-methyl-3-oxo-2,3-dihydro-pyridazin-4-yl)-phenyl]-amide]",339
7,"CN1C=C(C(=O)Nc2cccc3c(=O)n(CCO)ccc23)[C@H](c2ccc(F)cc2)NC1=O [Compound 53, (S)-4-(4-Fluoro-phenyl)-1-methyl-2-oxo-1,2,3,4-tetrahydro-pyrimidine-5-carboxylic acid [2-(2-hydroxy-ethyl)-1-oxo-1,2-dihydro-isoquinolin-5-yl]-amide]",53.1
8,"Cc1ccc(-n2ccccc2=O)cc1NC(=O)C1=CN(C)C(=O)N[C@H]1c1ccc(F)cc1 [Compound 54, (S)-4-(4-Fluoro-phenyl)-1-methyl-2-oxo-1,2,3,4-tetrahydro-pyrimidine-5-carboxylic acid [2-methyl-5-(2-oxo-2H-pyridin-1-yl)-phenyl]-amide]",21.6
9,"COc1ccc(-c2ccc(C)c(NC(=O)C3=CN(C)C(=O)N[C@H]3c3ccc(F)cc3)c2)nn1 [Compound 55, (S)-4-(4-Fluoro-phenyl)-1-methyl-2-oxo-1,2,3,4-tetrahydro-pyrimidine-5-carboxylic acid [5-(6-methoxy-pyridazin-3-yl)-2-methyl-phenyl]-amide]",11
10,"Cc1ccc(-n2c(=O)cc[nH]c2=O)cc1NC(=O)C1=CN(C)C(=O)N[C@H]1c1ccc(F)cc1 [Compound 56, (S)-4-(4-Fluoro-phenyl)-1-methyl-2-oxo-1,2,3,4-tetrahydro-pyrimidine-5-carboxylic acid [5-(2,6-dioxo-3,6-dihydro-2H-pyrimidin-1-yl)-2-methyl-phenyl]-amide]",3160
11,"Cc1ccc(-c2ccnn(C)c2=O)cc1NC(=O)C1=CN(C)C(=O)N[C@H]1c1ccccc1 [Compound 57, (S)-1-Methyl-2-oxo-4-phenyl-1,2,3,4-tetrahydro-pyrimidine-5-carboxylic acid [2-methyl-5-(2-methyl-3-oxo-2,3-dihydro-pyridazin-4-yl)-phenyl]-amide]",3470
12,Cc1cc2cnn(CC(=O)N(C)C)c2cc1NC(=O)C1=CN(C)C(=O)N[C@H]1c1ccc(F)cc1 [Compound 58],40.3
13,"Cc1ccc(-c2ccc(=O)n(CCO)n2)cc1NC(=O)C1=CN(C)C(=O)N[C@H]1c1ccc(F)cc1 [Compound 59, (S)-4-(4-Fluoro-phenyl)-1-methyl-2-oxo-1,2,3,4-tetrahydro-pyrimidine-5-carboxylic acid {5-[1-(2-hydroxy-ethyl)-6-oxo-1,6-dihydro-pyridazin-3-yl]-2-methyl-phenyl}-amide]",16.8
14,"Cc1ccc(-c2cccn(C)c2=O)cc1NC(=O)C1=CN(C)C(=O)N[C@H]1c1ccc(F)cc1 [Compound 60, (S)-4-(4-Fluoro-phenyl)-1-methyl-2-oxo-1,2,3,4-tetrahydro-pyrimidine-5-carboxylic acid [2-methyl-5-(1-methyl-2-oxo-1,2-dihydro-pyridin-3-yl)-phenyl]-amide]",5.5
15,"COC[C@H](O)Cn1nc(-c2ccc(C)c(NC(=O)C3=CN(C)C(=O)N[C@H]3c3ccc(F)cc3)c2)ccc1=O [Compound 61, (S)-4-(4-Fluoro-phenyl)-1-methyl-2-oxo-1,2,3,4-tetrahydro-pyrimidine-5-carboxylic acid {5-[1-((R)-2-hydroxy-3-methoxy-propyl)-6-oxo-1,6-dihydro-pyridazin-3-yl]-2-methyl-phenyl}-amide]",40.7
16,"Cc1cc(Cl)c(OCCO)cc1NC(=O)C1=CN(C)C(=O)NC1c1ccccc1 (stereo not drawn) [Compound 62, 1-Methyl-2-oxo-4-phenyl-1,2,3,4-tetrahydro-pyrimidine-5-carboxylic acid [4-chloro-5-(2-hydroxy-ethoxy)-2-methyl-phenyl]-amide]",15
17,"Cc1cc(Cl)c(-n2ncccc2=O)cc1NC(=O)C1=CN(C)C(=O)N[C@H]1c1ccc(F)cc1 [Compound 63, (S)-4-(4-Fluoro-phenyl)-1-methyl-2-oxo-1,2,3,4-tetrahydro-pyrimidine-5-carboxylic acid [4-chloro-2-methyl-5-(6-oxo-6H-pyridazin-1-yl)-phenyl]-amide]",51.9
18,"CCn1c(=O)cnn(-c2ccc(C)c(NC(=O)C3=CN(C)C(=O)N[C@H]3c3ccc(F)cc3)c2)c1=O [Compound 64, (S)-4-(4-Fluoro-phenyl)-1-methyl-2-oxo-1,2,3,4-tetrahydro-pyrimidine-5-carboxylic acid [5-(4-ethyl-3,5-dioxo-4,5-dihydro-3H-[1,2,4]triazin-2-yl)-2-methyl-phenyl]-amide]",16.6
19,"Cc1ccc2c(C)c(NC(=O)C3=CN(C)C(=O)N[C@H]3c3ccc(F)cc3)ccc2n1 [Compound 65, (S)-4-(4-Fluoro-phenyl)-1-methyl-2-oxo-1,2,3,4-tetrahydro-pyrimidine-5-carboxylic acid (2,5-dimethyl-quinolin-6-yl)-amide]",15.5
20,"Cc1cc(Cl)c(-n2cccc(C)c2=O)cc1NC(=O)C1=CN(C)C(=O)N[C@H]1c1ccc(F)cc1 [Compound 66, (S)-4-(4-Fluoro-phenyl)-1-methyl-2-oxo-1,2,3,4-tetrahydro-pyrimidine-5-carboxylic acid [4-chloro-2-methyl-5-(3-methyl-2-oxo-2H-pyridin-1-yl)-phenyl]-amide]",19.5
21,"Cc1ccc(-n2ccc(=O)n(C)c2=O)cc1NC(=O)C1=CN(C)C(=O)N[C@H]1c1ccc(F)cc1 [Compound 68, (S)-4-(4-Fluoro-phenyl)-1-methyl-2-oxo-1,2,3,4-tetrahydro-pyrimidine-5-carboxylic acid [2-methyl-5-(3-methyl-2,4-dioxo-3,4-dihydro-2H-pyrimidin-1-yl)-phenyl]-amide]",37.6
